Assay results taken from ChEMBL document CHEMBL1201862, “PubChem BioAssay data set” (2004).
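A five-concentration, 48-hour dose response in 96-well plates underlies each endpoint, interpolated linearly between surrounding concentrations. Here, GI50 denotes the concentration required for 50% inhibition of growth.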 Active and inactive are the calls of the source. Rule as the data show it: active = GI50 up to about 1.1 µM and inactive = higher.

Columns and labels:
Test in all cases: NCI anticancer screen, dose series, 48 h
[1] = test system: SK-MEL-2
[2] = test system: HCC 2998
[3] = test system: SF-539
[4] = test system: OVCAR-5
[5] = test system: UACC-62
[6] = test system: DMS-114
[7] = test system: HCT-116
[8] = test system: DMS-273
[9] = test system: K562
[10] = test system: ACHN
[11] = test system: NCI-H23
[12] = test system: IGROV-1
[13] = test system: XF498
[14] = test system: SW-620
[15] = test system: RXF 393
[16] = test system: NCI/ADR-RES
[17] = test system: PC-3
[18] = test system: BT-549
[19] = test system: Hs-578T
[20] = test system: MDA-MB-231

Measured: GI50

Cc1ccccc1NC(=O)C(=O)CC(=O)C1CCOC1=O (centres undefined)
inactive: [1] > 100 µM | [2] > 100 µM | [3] > 100 µM | [4] > 100 µM | [5] > 100 µM | [6] > 100 µM | [7] > 100 µM | [8] > 100 µM | [9] > 100 µM | [10] > 100 µM | [11] > 100 µM | [12] > 100 µM | [13] > 100 µM | [14] > 100 µM | [15] > 100 µM

CC1(C)O[C@@H](CCl)C[C@H](C#N)O1
inactive: [1] > 100 µM | [2] > 100 µM | [3] > 100 µM | [4] > 100 µM | [5] > 100 µM | [6] > 100 µM | [7] > 100 µM | [8] > 100 µM | [9] > 100 µM | [10] > 100 µM | [11] > 100 µM | [12] > 100 µM | [13] > 100 µM | [14] > 100 µM | [15] > 100 µM

CC1=C(C(=O)CC(=O)C(=O)Nc2ccc(Cl)cc2C)Sc2ccccc2N1
inactive: [1] > 100 µM | [2] > 100 µM | [3] > 100 µM | [4] > 100 µM | [5] > 100 µM | [6] > 92.7 µM | [7] > 100 µM | [8] > 100 µM | [9] > 100 µM | [10] > 100 µM | [11] > 100 µM | [12] > 100 µM | [13] > 100 µM | [14] > 100 µM | [15] > 100 µM

Nc1nc(SCCC/C=C/I)nc2c1ncn2C1OC(COP(=O)(O)O)C(O)C1O (centres undefined)
inactive: [1] > 100 µM | [2] > 100 µM | [3] > 100 µM | [4] > 100 µM | [5] > 100 µM | [6] > 100 µM | [7] > 100 µM | [8] > 100 µM | [9] > 100 µM | [10] > 100 µM | [11] > 100 µM | [12] > 100 µM | [13] > 100 µM | [14] > 100 µM | [15] > 100 µM

COC(=O)c1nc(NN)cc(O)c1CCCCCc1c(O)nc(NN)nc1C(=O)OC
inactive: [1] > 100 µM | [2] > 100 µM | [3] > 100 µM | [4] > 100 µM | [5] > 100 µM | [6] > 95.1 µM | [7] > 100 µM | [8] > 100 µM | [9] > 100 µM | [10] > 100 µM | [11] > 100 µM | [12] > 100 µM | [13] > 100 µM | [14] > 59.3 µM | [15] > 100 µM

CCOC(=O)/C(=C\c1ccc(N(CCC#N)CCC#N)cc1C)NC(=O)/C=C/c1ccccc1
inactive: [1] > 100 µM | [2] 62.2 µM | [3] > 100 µM | [4] > 100 µM | [5] > 100 µM | [6] > 100 µM | [7] > 100 µM | [8] > 100 µM | [9] > 100 µM | [10] > 100 µM | [11] > 100 µM | [12] > 100 µM | [13] > 100 µM | [14] > 100 µM | [15] > 100 µM

CCCCCOc1ccc(/C=N\c2ccc(CCc3ccc(/N=C/c4ccc(OCCCCC)cc4)cc3)cc2)cc1
inactive: [1] > 100 µM | [2] > 100 µM | [3] > 100 µM | [4] > 100 µM | [5] > 100 µM | [6] > 100 µM | [7] > 100 µM | [8] > 100 µM | [9] > 100 µM | [11] > 100 µM | [16] > 100 µM | [12] > 100 µM | [13] > 100 µM | [14] > 100 µM | [15] > 100 µM

O=C(CCN1CCCCC1)C(=Cc1ccccc1)C(=O)CCN1CCCCC1
inactive: [1] > 100 µM | [2] > 100 µM | [3] 49.8 µM | [4] > 100 µM | [5] 31.4 µM | [6] 2.77 µM | [7] 42.3 µM | [8] > 100 µM | [9] 19.7 µM | [10] 9.73 µM | [11] > 59.8 µM | [16] 74.5 µM | [12] > 100 µM | [13] > 100 µM | [14] 29.7 µM | [15] 6.52 µM

Cn1c(=O)c2nc(NCCO)cnc2n(C)c1=O
inactive: [1] 26.6 µM | [2] 64.6 µM | [3] 31.8 µM | [4] > 100 µM | [5] 37.8 µM | [6] 64.1 µM | [7] 62.8 µM | [8] 53.6 µM | [9] 44.2 µM | [10] > 100 µM | [11] > 100 µM | [12] > 100 µM | [13] 38.9 µM | [14] 55.6 µM | [15] 35.6 µM

C#Cc1cccc(N2C(=O)CCC2=O)c1
inactive: [1] 19.9 µM | [2] 15 µM | [3] 21.5 µM | [4] 16.7 µM | [5] 18.2 µM | [6] 14.8 µM | [7] 9.08 µM | [8] 23.2 µM | [17] 15.2 µM | [9] 2.65 µM | [10] 16.7 µM | [18] > 10 µM | [11] 14.7 µM | [19] 17.3 µM | [12] 21.5 µM | [13] 15 µM | [20] 12.2 µM | [14] 5.61 µM
